# Measurements reported in patent publication US20180353443A1, “CURCUMIN-BASED COMPOSITIONS & METHODS OF USE THEREOF” (priority 2015, published 2018).
# Key:
# Assay type in all cases: cell-based
# [1] = tested on: NFkB-p65 serine 276 phosphorylation; experiment: Western blot of NFkB-p65 phosphorylated at serine 276 in BV2 cells; conditions: 22.0 μg/ml curcuminoid, LPS induction, FIGS. 6 and 7
# Procedure: (§1) Western blot analysis was performed in multiple varying formats before optimization was achieved. The BV2 microglia cell line was cultured in Dulbecco's Modified Eagle's Medium (DMEM)—complete medium. The complete medium consisted of DMEM, 1% Ampicillin, and 10% Fetal Bovine Serum (FBS). BV2 microglia cells, at a cell count of approximately 2×10^6, were seeded in each well (6 wells per plate) with 2.0 ml complete medium and cultured overnight in a ThermaForma HepaFilter Series II Co2 Incubator at 37° Celsius. Upon establishing confluence, subconfluent cells were washed out and the wells were prepared with drug pre-treatment after overnight incubation.
# (§2) The test drugs (curcuminoids) were procured as follows: curcumin I research standard (03926) (ChromaDex Irvine, Calif. USA) (97.7% purity); curcumin II research standard (04230) (ChromaDex Irvine, Calif. USA) (97.3%); curcumin III research standard (B6938) (Sigma-Aldrich St. Louis, Mo., USA) (97.7% purity); curcumin extract (curcumin I—77.7%, curcumin II—16.9%, curcumin III—0.9%) research standard (03928) (ChromaDex Irvine, Calif. USA) (95.3% purity); and Lipopolysaccharide (LPS) from E. Coli (L2630) (Sigma-Aldrich St. Louis, Mo., USA).
# (§3) Curcuminoids are not soluble in aqueous medium due to their hydrophobic characteristic. However, curcuminoid extracts are soluble in polar organic solvents, such as DMSO and acetone. In this Example, each curcuminoid preparation was first dissolved in DMSO. DMSO was used in the drug preparation at 0.2%. The drug/DMSO solution was subsequently dissolved in DMEM to achieve a final drug concentration for each curcuminoid preparation tested—22.0 μg/ml curcuminoid. […]
# (§4) Total protein concentration for each fraction was determined using a Bio Rad Protein Assay that is based on the Bradford Assay (dye-binding method). […]
# (§5) The targets analyzed in the Western Blot included NFkB-p65 and its nucleocytoplasmic translocation, as well as kinases (including MSK1) and their covalent modifications upstream of and involved in the regulation of NFkB. […]
# [2] = tested on: MSK1 serine 376 phosphorylation; experiment: Western blot of MSK1 phosphorylated at serine 376 in BV2 cells; conditions: 22.0 μg/ml curcuminoid, LPS induction, FIGS. 10 and 11
# Procedure: as §1, with “incubation. […]” for “incubation.”
# as §4, §5
# [3] = tested on: MSK1; experiment: Western blot of cytoplasmic and nuclear MSK1 protein levels in BV2 cells; conditions: 22.0 μg/ml curcuminoid, LPS induction
# Procedure: as §1, with “incubation. […]” for “incubation.”
# as §4, §5
# [4] = tested on: NFkB-p65; experiment: Western blot of cytoplasmic and nuclear NFkB-p65 (nucleotranslocation) in BV2 cells; conditions: 22.0 μg/ml curcuminoid, LPS induction, FIGS. 4 and 5
# Procedure: as §1, §2, §3, §4, §5
# [5] = tested on: miRNA148a; experiment: RT qPCR of miRNA148a levels in BV2 cells; conditions: 22 μg/ml curcuminoid, 30 min pre-treatment, with or without LPS, FIG. 3
# Procedure: Reverse transcriptase (RT) quantitative PCR (RT qPCR) was performed to measure miRNA 148a levels in cells that were treated with curcumin I, II, or III, or a control. More particularly, six-well plates were seeded with BV2 cells at a concentration of about 1.5×10^6 BV2 cells per well. Drug (curcumin I, II, or III) treatment was carried out in the same manner as was executed for the western blot experimentation described in Example 3 below. Ten wells were prepared and, upon confluence, the next day the drug treatment was designed to evaluate basal influence of curcumin extract, curcumin I, curcumin II, curcumin III, as well as each curcumin drug with LPS stimulation. After 30 minutes of incubation with the drug treatment, LPS was used to induce the cells in each well labelled to be induced by LPS.
# RNA was ultimately extracted from the cells to determine the levels of miRNA148a. A Qiagen miRNeasy Mini Kit (Cat. No. 217004) was used to extract total RNA along with miRNA. The miRNA was reverse transcribed to cDNA using a gene-specific RT primer and the miScript II RT Kit by Qiagen (Cat. No. 218161). An miRNA148a primer assay was acquired from Qiagen (Cat. No. 00003556). […]
SMILES,inhibition of NFkB-p65 serine 276 phosphorylation [1],inhibition of MSK1 serine 376 phosphorylation [2],effect on MSK1 protein levels in the cytoplasm ([3]; FIG. 8),effect on MSK1 protein levels in the nucleus ([3]; FIG. 9),inhibition of NFkB-p65 nucleotranslocation (cytosolic and nuclear NFkB-p65) [4],effect on miRNA148a levels [5]
"O=C(/C=C/c1ccc(O)cc1)CC(=O)/C=C/c1ccc(O)cc1 [curcumin III, (1E,6E)-1,7-bis(4-hydroxyphenyl)hepta-1,6-diene-3,5-dione]",moderately inhibit,inhibition,significantly inhibited and downregulated,significantly inhibited and downregulated,not significantly inhibited,significantly increase
"COc1cc(/C=C/C(=O)/C=C(O)/C=C/c2ccc(O)c(OC)c2)ccc1O [curcumin I, (1E,6E)-1,7-Bis(4-hydroxy-3-methoxyphenyl)-1,6-heptadiene-3,5-dione]",moderately inhibit,,,,not significantly inhibited,
"COc1cc(/C=C/C(=O)CC(=O)/C=C/c2ccc(O)cc2)ccc1O [curcumin II, (1E,6E)-1-(4-Hydroxy-3-methoxyphenyl)-7-(4-hydroxyphenyl)hepta-1,6-diene-3,5-dione]",moderately inhibit,inhibit,,,not significantly inhibited,inhibits
